{
  "source": "patent US8309590B2",
  "about": "“Triazol compounds for treating biofilm formation” (Novartis AG, priority 2007, dated 2012)",
  "key": {"[1]": {"system": "P. aeruginosa", "experiment": "planktonic growth in borosilicate glass tube model (OD 570 nm)", "format": "cell-based, Pseudomonas aeruginosa", "method": "Growth with or without Compound I, e.g. at concentrations achieved in peripheral blood, under aerobic and anaerobic conditions with no added iron, 10, 30 and 50 μM iron. […] The effect of bacterial growth is determined using a standard method that involves inoculation of aliquots, e.g. 500 μL, of around 10^6 bacteria in minimal media with succinate into borosilicate glass tubes, e.g. 12×75 mm, that are them incubated under aerobic and anaerobic conditions, e.g. at 37° C. Each experiment is undertaken in triplicate and each borosilicate tube is removed at regular intervals, e.g. 0, 4, 8, 12, 16, 20 and 24 hours and the optical density at 570 nm of the culture used as an indicator of the level of growth. Anaerobic culture conditions are generated using the Anaerogen™ (Oxoid) system. For anaerobic experiments, parallel cultures are set up so that cultures are not transiently exposed to oxygen, i.e. seven parallel cultures to allow sampling at the required times. Different concentrations of Compound I are assessed for their effect on aerobic and anaerobic (A) growth and (B) biofilm levels. Medium used is MMS supplemented with 0 or 10 μM FeCl3, as indicated (37° C., 24 h). Values shown represent the mean±SD of one representative experiment with 3 tubes per experiment. Different concentrations of Compound I are assessed for their effect on aerobic and anaerobic (A) growth and (B) biofilm levels. Medium used is MMS supplemented with 10 μM FeCl3 (37° C., 24 h). […] The effects of Compound I on planktonic growth and biofilm development re assessed in the short-term borosilicate glass tube biofilm model. In this model, a biofilm is grown on a glass surface, and this is subsequently stained and solubilized. The optical density (OD: 570 nm) of the solution corresponds with the level of biofilm development. Using this model, bacterial growth and biofilm levels are determined after incubation (24 h, 37° C.) in minimal medium supplemented with succinate (MMS)+10 μM FeCl3 (aerobic and anaerobic atmospheres)."}, "[2]": {"system": "P. aeruginosa biofilm", "experiment": "short-term borosilicate glass tube biofilm model (OD 570 nm)", "format": "cell-based, Pseudomonas aeruginosa", "method": "For this purpose, two short-term biofilm models relevant for the early stages of biofilm formation are used: borosilicate tubes and cover-slip method. In both models, the biofilm growth is studied with or without Compound I under either aerobic or anaerobic conditions and with or without added iron, i.e. 0, 10, 30 and 50 μM iron. The anti-biofilm effects of Compound I are looked at according to the standard methods, i.e. optical density, confocal imaging software, […] program, to allow analysis of biofilm structure in a 3 dimensional perspective. The imaging system and use of BacLight LIVE/DEAD staining (Molecular Probes) in the cover-slip experiments allow to look at the effects on both bacterial microcolonies and biofilm structure. Different concentrations of Compound I are assessed for their effect on aerobic and anaerobic (A) growth and (B) biofilm levels. Medium used is MMS supplemented with 0 or 10 μM FeCl3, as indicated (37° C., 24 h). Values shown represent the mean±SD of one representative experiment with 3 tubes per experiment. Different concentrations of Compound I are assessed for their effect on aerobic and anaerobic (A) growth and (B) biofilm levels. Medium used is MMS supplemented with 10 μM FeCl3 (37° C., 24 h). […] The effect of Compound I (1339 μM) on biofilm development in different iron concentrations, without Compound I (black columns) and with Compound I, 1339 μM (grey columns). […] The effects of Compound I on planktonic growth and biofilm development re assessed in the short-term borosilicate glass tube biofilm model. In this model, a biofilm is grown on a glass surface, and this is subsequently stained and solubilized. The optical density (OD: 570 nm) of the solution corresponds with the level of biofilm development. Using this model, bacterial growth and biofilm levels are determined after incubation (24 h, 37° C.) in minimal medium supplemented with succinate (MMS)+10 μM FeCl3 (aerobic and anaerobic atmospheres). […] It is investigated whether Compound I is impairing anaerobic biofilm development by directly reducing the level of iron in the medium, or whether it is acting by an iron-independent mechanism. Compound I at a concentration of 1339 μM is tested to see if it continued to impair anaerobic biofilm development as the concentration of iron is increased in the culture medium."}, "[3]": {"system": "P. aeruginosa strain PAO1", "experiment": "MIC of tobramycin and colistin with and without Compound I", "format": "cell-based, Pseudomonas aeruginosa", "settings": "Compound I 1339 μM, MMS + 10 μM FeCl3, aerobic and anaerobic atmospheres", "method": "The minimal inhibitory concentrations (MICs) of the aminoglycosides gentamycin and tobramycin are determined under aerobic and anaerobic conditions in the presence of no added iron or 30 μM iron, with or without Compound I, e.g. and/or with varying concentrations of Compound I). MICs are determined in MMS+10 μM FeCl3 supplemented with Compound I (1339 μM) (solid line) and without Compound I (dashed line). Values shown represent the mean±SD of a representative experiment with each condition tested in duplicate. The […] inhibitory concentrations (MICS) of two antibiotics commonly used antibiotics to treat CF individuals, tobramycin and colistin, are tested against P. aeruginosa. This is done in MMS+10 μM FeCl3 with and without Compound I (1339 μM) under aerobic and anaerobic atmospheres (FIG. 4)."}, "[4]": {"system": "phospholipase C production by P. aeruginosa", "experiment": "virulence factor production: phospholipase C", "format": "cell-based, Pseudomonas aeruginosa", "settings": "Compound I 1339 μM, MMS + 10 μM FeCl3, anaerobic, 24 h"}, "[5]": {"system": "exotoxin A (ETA) production by P. aeruginosa", "experiment": "virulence factor production: exotoxin A", "format": "cell-based, Pseudomonas aeruginosa", "settings": "Compound I 1339 μM, MMS + 10 μM FeCl3, anaerobic, 24 h"}, "[6]": {"experiment": "solubility in MMS medium", "format": "physicochemical", "settings": "MMS medium (pH 7.0)"}, "[7]": {"settings": "Compound I 0-100 μM, aerobic, MMS + 10 μM FeCl3, 24 h, 37° C."}, "[8]": {"settings": "Compound I 0-100 μM, anaerobic, MMS + 10 μM FeCl3, 24 h, 37° C."}, "[9]": {"settings": "higher concentration of Compound I (up to 6695 μM, via PEG 400), aerobic"}, "[10]": {"settings": "higher concentration of Compound I (up to 6695 μM, via PEG 400), anaerobic, P<0.05"}},
  "data": [
    {"smiles": "O=C(O)c1ccc(-n2nc(-c3ccccc3O)nc2-c2ccccc2O)cc1", "note": "[Compound I, 4-[3,5-Bis-(2-hydroxyphenyl)-[1,2,4]-triazol-1-yl]benzoic acid]", "values": [
      {"measurement": "effect on aerobic growth", "setting": "[1]; [7]", "value": "does not impair"},
      {"measurement": "effect on anaerobic growth", "setting": "[1]; [8]", "value": "does not impair"},
      {"measurement": "effect on growth, higher concentration, aerobic", "setting": "[1]; [9]", "value": "not under aerobic conditions"},
      {"measurement": "effect on growth, higher concentration, anaerobic", "setting": "[1]; [10]", "value": "significantly impair"},
      {"measurement": "effect on aerobic biofilm development", "setting": "[2]; [7]", "value": "does not impair"},
      {"measurement": "effect on anaerobic biofilm development", "setting": "[2]; [8]", "value": "does not impair"},
      {"measurement": "impairment of anaerobic biofilm development as iron concentration is increased", "setting": "[2]; Compound I 1339 μM, anaerobic, increasing iron levels in culture medium", "value": "becomes less effective"},
      {"measurement": "effect on biofilm levels, higher concentration, aerobic", "setting": "[2]; [9]", "value": "not under aerobic conditions"},
      {"measurement": "effect on biofilm levels, higher concentration, anaerobic", "setting": "[2]; [10]", "value": "significantly impair"},
      {"measurement": "effect on MIC of colistin", "setting": "[3]", "value": "does not alter the MIC"},
      {"measurement": "effect on MIC of tobramycin", "setting": "[3]", "value": "does not alter the MIC"},
      {"measurement": "effect on iron-induced increase of phospholipase C production", "setting": "[4]", "value": "increase is negated"},
      {"measurement": "effect on iron-induced increase of exotoxin A (ETA) production", "setting": "[5]", "value": "increase is negated"},
      {"measurement": "solubility in MMS medium", "setting": "[6]", "value": "low solubility"}
    ]}
  ]
}
